From PubChem BioAssay (NCI)
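GI50 marks 50% less growth. TGI marks complete inhibition of growth.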

Assays:
Assay in all cases: growth of human tumour cells (NCI), 384-well format
[1] = test system: HS 578T breast
[2] = test system: RPMI-8226 leukemia
[3] = test system: DU-145 prostate
[4] = test system: HL-60(TB) leukemia
[5] = test system: MDA-MB-468 breast
[6] = test system: OVCAR-5 ovarian
[7] = test system: SR leukemia
[8] = test system: OVCAR-8 ovarian
[9] = test system: SN12C renal
[10] = test system: MCF7 breast
[11] = test system: MDA-MB-435 melanoma
[12] = test system: 786-0 renal
[13] = test system: CAKI-1 renal
[14] = test system: LOX IMVI melanoma
[15] = test system: SNB-75 CNS
[16] = test system: HOP-92 NSCLC
[17] = test system: BT-549 breast
[18] = test system: SNB-19 CNS
[19] = test system: PC-3 prostate
[20] = test system: T-47D breast
[21] = test system: HOP-62 NSCLC
[22] = test system: HCT-116 colon
[23] = test system: SF-295 CNS
[24] = test system: SF-539 CNS
[25] = test system: CCRF-CEM leukemia
[26] = test system: HT29 colon
[27] = test system: OVCAR-3 ovarian
[28] = test system: A498 renal
[29] = test system: A549 NSCLC
[30] = test system: ACHN renal
[31] = test system: NCI-H322M lung
[32] = test system: UACC-257 melanoma
[33] = test system: SK-OV-3 ovarian
[34] = test system: UACC-62 melanoma
[35] = test system: HCC-2998 colon
[36] = test system: COLO 205 colon
[37] = test system: OVCAR-4 ovarian
[38] = test system: SK-MEL-28 melanoma
[39] = test system: U251 glioblastoma
[40] = test system: NCI/ADR-RES ovarian
[41] = test system: NCI-H226 lung
[42] = test system: M14 melanoma
[43] = test system: SF-268 CNS
[44] = test system: SW-620 colon
[45] = test system: NCI-H460 NSCLC
[46] = test system: IGROV1 ovarian
[47] = test system: UO-31 renal

For `CNCc1ccccc1-c1csc([C@@H](C)Nc2nc(C)nc3cc(OC)c(OC)cc23)c1`, the GI50 [1] was 302 nM, the TGI [1] was 2110 nM and the GI50 [2] was 643 nM. It also gave a TGI [2] of 1980 nM, a GI50 [3] of 1710 nM and a TGI [3] of 3200 nM. It also gave a GI50 [4] of 1080 nM, a TGI [4] of 2270 nM and a GI50 [5] of 287 nM. It also gave a TGI [5] of 1560 nM, a GI50 [6] of 1510 nM and a TGI [6] of 2860 nM. It also gave a GI50 [7] of 676 nM, a TGI [7] of 1940 nM and a GI50 [8] of 1500 nM. It also gave a TGI [8] of 2830 nM, a GI50 [9] of 1030 nM and a TGI [9] of 2200 nM. It also gave a GI50 [10] of 1290 nM, a TGI [10] of 2570 nM and a GI50 [11] of 1570 nM. For the same molecule, the TGI [11] was 2910 nM, the GI50 [12] was 1240 nM and the TGI [12] was 2500 nM. It also gave a GI50 [13] of 1050 nM, a TGI [13] of 2220 nM and a GI50 [14] of 1650 nM. For the same molecule, the TGI [14] was 3010 nM, the GI50 [15] was 1300 nM and the TGI [15] was 2570 nM. It also gave a GI50 [16] of 171 nM, a TGI [16] of 1290 nM and a GI50 [17] of 1250 nM. The TGI [17] was 2500 nM, the GI50 [18] was 1450 nM and the TGI [18] was 2770 nM. For the same molecule, the GI50 [19] was 1530 nM, the TGI [19] was 2970 nM and the GI50 [20] was 1130 nM. For the same molecule, the TGI [20] was 2340 nM, the GI50 [21] was 1480 nM and the TGI [21] was 2800 nM. It also gave a GI50 [22] of 1290 nM, a TGI [22] of 2560 nM and a GI50 [23] of 1700 nM. For the same molecule, the TGI [23] was 3070 nM, the GI50 [24] was 1140 nM and the TGI [24] was 2360 nM. The GI50 [25] was 1070 nM, the TGI [25] was 2260 nM and the GI50 [26] was 1560 nM. It also gave a TGI [26] of 2910 nM, a GI50 [27] of 1260 nM and a TGI [27] of 2520 nM. The GI50 [28] was 1030 nM, the TGI [28] was 2190 nM and the GI50 [29] was 1670 nM. For the same molecule, the TGI [29] was 3040 nM, the GI50 [30] was 1510 nM and the TGI [30] was 2840 nM. For the same molecule, the GI50 [31] was 1210 nM, the TGI [31] was 2480 nM and the GI50 [32] was 275 nM. The TGI [32] was 810 nM, the GI50 [33] was 1310 nM and the TGI [33] was 2580 nM. The GI50 [34] was 1700 nM, the TGI [34] was 3080 nM and the GI50 [35] was 240 nM. The TGI [35] was 1070 nM, the GI50 [36] was 1590 nM and the TGI [36] was 2940 nM. It also gave a GI50 [37] of 1140 nM, a TGI [37] of 2380 nM and a GI50 [38] of 1510 nM. The TGI [38] was 2840 nM, the GI50 [39] was 1440 nM and the TGI [39] was 2750 nM. For the same molecule, the GI50 [40] was 1620 nM, the TGI [40] was 2990 nM and the GI50 [41] was 1250 nM. The TGI [41] was 2580 nM, the GI50 [42] was 1560 nM and the TGI [42] was 2900 nM. It also gave a GI50 [43] of 1610 nM, a TGI [43] of 2960 nM and a GI50 [44] of 1360 nM. It also gave a TGI [44] of 2640 nM, a GI50 [45] of 1580 nM and a TGI [45] of 2930 nM. The GI50 [46] was 1310 nM, the TGI [46] was 2590 nM and the GI50 [47] was 1520 nM. The TGI [47] was 2850 nM.
`Cc1cc(Nc2ccc(NC(=O)c3ccc(Nc4ccnc5ccccc45)cc3)cc2)nc(N)n1` showed a GI50 [1] of 1050 nM, a TGI [1] of 2240 nM and a GI50 [2] of 3110 nM. It also gave a TGI [2] of 7870 nM, a GI50 [3] of 1600 nM and a TGI [3] of 2980 nM. For the same molecule, the GI50 [4] was 603 nM, the TGI [4] was 1060 nM and the GI50 [5] was 196 nM. It also gave a TGI [5] of 339 nM, a GI50 [6] of 1850 nM and a TGI [6] of 3740 nM. It also gave a GI50 [7] of 172 nM, a TGI [7] of 313 nM and a GI50 [8] of 831 nM. The TGI [8] was 2100 nM, the GI50 [9] was 1220 nM and the TGI [9] was 2480 nM. The GI50 [10] was 254 nM, the TGI [10] was 618 nM and the GI50 [11] was 1850 nM. It also gave a TGI [11] of 3260 nM, a GI50 [12] of 872 nM and a TGI [12] of 2240 nM. For the same molecule, the GI50 [13] was 2960 nM, the TGI [13] was 8450 nM and the GI50 [14] was 166 nM. The TGI [14] was 308 nM, the GI50 [15] was 2400 nM and the TGI [15] was 4700 nM. For the same molecule, the GI50 [16] was 539 nM, the TGI [16] was 1520 nM and the GI50 [17] was 490 nM. It also gave a TGI [17] of 1120 nM, a GI50 [18] of 1240 nM and a TGI [18] of 2510 nM. For the same molecule, the GI50 [19] was 894 nM, the TGI [19] was 2250 nM and the GI50 [20] was 192 nM. For the same molecule, the TGI [20] was 334 nM, the GI50 [21] was 695 nM and the TGI [21] was 1840 nM. The GI50 [22] was 200 nM, the TGI [22] was 413 nM and the GI50 [23] was 3160 nM. For the same molecule, the TGI [23] was 8990 nM, the GI50 [24] was 552 nM and the TGI [24] was 1020 nM. The GI50 [25] was 191 nM, the TGI [25] was 335 nM and the GI50 [26] was 319 nM. The TGI [26] was 815 nM, the GI50 [27] was 189 nM and the TGI [27] was 333 nM. For the same molecule, the GI50 [28] was 1500 nM, the TGI [28] was 2890 nM and the GI50 [29] was 1870 nM. The TGI [29] was 3400 nM, the GI50 [30] was 11200 nM and the TGI [30] was 31000 nM. The GI50 [31] was 418 nM, the TGI [31] was 1260 nM and the GI50 [32] was 556 nM. It also gave a TGI [32] of 1560 nM, a GI50 [33] of 917 nM and a TGI [33] of 2250 nM. For the same molecule, the GI50 [34] was 719 nM, the TGI [34] was 1940 nM and the GI50 [35] was 541 nM. The TGI [35] was 1000 nM, the GI50 [36] was 206 nM and the TGI [36] was 352 nM. It also gave a GI50 [37] of 521 nM, a TGI [37] of 957 nM and a GI50 [38] of 987 nM. It also gave a TGI [38] of 2270 nM, a GI50 [39] of 195 nM and a TGI [39] of 340 nM. For the same molecule, the GI50 [40] was over 100000 nM, the TGI [40] was over 100000 nM and the GI50 [41] was 625 nM. For the same molecule, the TGI [41] was 1210 nM, the GI50 [42] was 1550 nM and the TGI [42] was 2920 nM. It also gave a GI50 [43] of 732 nM, a TGI [43] of 1820 nM and a GI50 [44] of 250 nM. It also gave a TGI [44] of 580 nM, a GI50 [45] of 1670 nM and a TGI [45] of 3150 nM. It also gave a GI50 [46] of 4970 nM, a TGI [46] of 9370 nM and a GI50 [47] of 33800 nM. The TGI [47] was over 100000 nM.
